Test results: patent US8563742B2, “Substituted aminothiazole derivatives, pharmaceutical compositions, and methods of use” (High Point Pharmaceuticals, LLC, priority 2008, dated 2013)

Biological target: T1, human MC-4R (Homo sapiens, UniProt P32245)
T1 construct: expressed in transfected cells
Assay: Biological Assay: inhibition of AgRP functional interaction with MC-4R in presence of αMSH (cAMP production)
Format: cell-based
Conditions: HEK293 cells expressing human MC-4R, AgRP83-132 and αMSH present; read-out: Average EC50 (nM) in Biological Assay
Method: The following method is illustrative of techniques that may be employed to measure the ability of the compounds of Formula (I) to functionally modulate the binding of AgRP to melanocortin receptors. In particular, the assay below measures the ability of compounds of Formula (I) or pharmaceutically acceptable salts thereof to functionally modulate the binding of AgRP to MC-4R in the presence of a MC-4R agonist, such as alpha-MSH.
HEK293 cells stably expressing human MC-4R receptors were grown in high glucose Dulbecco's Modified Eagle Medium (DMEM) with 4500 mg glucose/L, L-glutamine, NaHCO3, pyrdoxin HCl, 10 mM HEPES (pH 7.4), 0.1 mM NEAA (non-essential amino acid medium) (GIBCO Cat#11140-050), 10% fetal bovine serum and 700 μg/mL G418. Cells were grown in T-225 flasks at 37° C. with CO2 and humidity control.
On the day of assay, cells were washed twice with phosphate buffered saline without calcium and magnesium (PBS) and incubated with 10 mL PBS until the cells were detached from the flask. The detached cells were centrifuged at 240 g for 5 min. The cell pellet was re-suspended in assay buffer (Earle's balanced salt solution (Sigma E3024) supplemented with 10 mM HEPES, pH 7.4, 0.5 mM IBMX and protease inhibitor cocktail (Roche, 1 complete tablet/75 mL buffer)).
The inhibitory or enhancement effect of compounds on AgRP activity was measured in a multi-component assay containing testing compounds, AgRP83-132 (human, Phoenix Pharma, cat no. 003-53), cells expressing MC-4R, and αMSH (Bachem, cat no. H-1075). Test compounds, AgRP and αMSH were diluted with assay buffer. Test compounds and AgRP were mixed to 4 times of the final concentration and incubated at room temperature for 30 min. Five μL of testing compound/AgRP solution followed with 10 μL of cells (20,000 cells/well) were added to each well of a 384-well reaction plate before 5 μL of αMSH was added. Cells were stimulated with αMSH for an additional 30 min at 37° C.
Stimulation of cells was stopped by adding a lysis buffer and cells were lysed. The intracellular concentration of cAMP may be measured by various techniques known to one of skill in the art including, but not limited to, fluorescence polarization (FP) and time-resolved fluorescence (TRF).
The inhibition was shown by an increase in MC-4R mediated cAMP production.

T1 sequence (P32245 whole entry): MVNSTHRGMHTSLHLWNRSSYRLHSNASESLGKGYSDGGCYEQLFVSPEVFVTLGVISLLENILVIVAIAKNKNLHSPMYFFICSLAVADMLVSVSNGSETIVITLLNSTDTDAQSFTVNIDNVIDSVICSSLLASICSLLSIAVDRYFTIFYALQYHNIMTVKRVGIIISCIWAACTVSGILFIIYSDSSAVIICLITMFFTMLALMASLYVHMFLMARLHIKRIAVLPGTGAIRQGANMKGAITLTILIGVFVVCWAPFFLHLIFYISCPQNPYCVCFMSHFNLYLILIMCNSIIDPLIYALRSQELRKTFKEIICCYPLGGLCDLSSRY

Compound | EC50
CCc1ccc(CN(CCC(=O)O)c2nc(C3CCC(OC)CC3)cs2)s1 (stereo not shown) [Example 32, 3-{(5-Ethyl-thiophen-2-ylmethyl)-[4-(4-methoxy-cyclohexyl)-thiazol-2-yl]-amino}-propionic acid] | 2280 nM
Cc1ccc(CN(CCC(=O)O)c2nc(C3Cc4ccccc4C3)cs2)s1 [Example 12, 3-[(4-Indan-2-yl-thiazol-2-yl)-(5-methyl-thiophen-2-ylmethyl)-amino]-propionic acid] | 384 nM
CCc1ccc(CN(CCC(=O)O)c2nc(C3CCC(F)(F)CC3)cs2)s1 [Example 24, Sodium; 3-[[4-(4,4-difluoro-cyclohexyl)-thiazol-2-yl]-(5-ethyl-thiophen-2-ylmethyl)-amino]-propionate] | 79 nM
Cc1ccc(CN(CCC(=O)O)c2nc(C3CCC(C)(C)CC3)c(C)s2)s1 [Example 56, Sodium; 3-[[4-(4,4-dimethyl-cyclohexyl)-5-methyl-thiazol-2-yl]-(5-methyl-thiophen-2-ylmethyl)-amino]-propionate] | 217 nM
Cc1ccc(CN(CCC(=O)O)c2nc(CC3CCC(C)(C)CC3)cs2)s1 [Example 64, 3-[[4-(4,4-dimethyl-cyclohexylmethyl)-thiazol-2-yl]-(5-methyl-thiophen-2-ylmethyl)-amino]-propionic acid] | 90 nM
Cc1ccc(CN(CCC(=O)O)c2nc(C3CCC(C(F)(F)F)CC3)cs2)s1 (stereo not shown) [Example 18, 3-{(5-Methyl-thiophen-2-ylmethyl)-[4-(4-trifluoromethyl-cyclohexyl)-thiazol-2-yl]-amino}-propionic acid] | 416 nM
Cc1cc(CN(CCC(=O)O)c2nc(C3(CC(C)C)CCCC3)cs2)c(C)s1 [Example 44, 3-{(2,5-Dimethyl-thiophen-3-ylmethyl)-[4-(1-isobutyl-cyclopentyl)-thiazol-2-yl]-amino}-propionic acid] | 191 nM
CCC1(c2csc(N(CCC(=O)O)Cc3ccc(C)s3)n2)CCC(C)CC1 (stereo not shown) [Example 45, Sodium; 3-[[4-(1-ethyl-4-methyl-cyclohexyl)-thiazol-2-yl]-(5-methyl-thiophen-2-ylmethyl)-amino]-propionate] | 159 nM
CCCC1CCC(c2csc(N(CCC(=O)O)Cc3ccc(CC)s3)n2)CC1 (stereo not shown) [Example 22, 3-{(5-Ethyl-thiophen-2-ylmethyl)-[4-(4-propyl-cyclohexyl)-thiazol-2-yl]-amino]-propionic acid] | 394 nM
Cc1ccc(CN(CCC(=O)O)c2nc(C3CCC(C(C)(C)C)CC3)cs2)s1 (stereo not shown) [Example 27, 3-[[4-(4-tert-Butyl-cyclohexyl)-thiazol-2-yl]-(5-methyl-thiophen-2-ylmethyl)-amino]-propionic acid] | 114 nM
CCc1ccc(CN(CCC(=O)O)c2nc(C3CCc4ccccc4C3)cs2)s1 (stereo not shown) [Example 13, 3-{(5-Ethyl-thiophen-2-ylmethyl)-[4-(1,2,3,4-tetrahydro-naphthalen-2-yl)-thiazol-2-yl]-amino}-propionic acid] | 528 nM
Cc1ccc(CN(CCC(=O)O)c2nc(C3(C)CCC(C)(C)CC3)cs2)s1 [Example 52, 3-[[4-(1,4,4-trimethyl-cyclohexyl)-thiazol-2-yl]-(5-methyl-thiophen-2-ylmethyl)-amino]-propionic acid] | 267 nM
CCc1ccc(CN(CCC(=O)O)c2nc([C@H]3CC[C@H](C(C)C)CC3)cs2)s1 [Example 10, Sodium; 3-[(5-ethyl-thiophen-2-ylmethyl)-[4-(4-trans-isopropyl-cyclohexyl)-thiazol-2-yl]-amino]-propionate] | 260 nM
Cc1ccc(CN(CCC(=O)O)c2nc(C3CC(C)(C)CC(C)(C)C3)cs2)s1 [Example 53, 3-{(5-methyl-thiophen-2-ylmethyl)-[4-(3,3,5,5-tetramethyl-cyclohexyl)-thiazol-2-yl]-amino}-propionic acid] | 307 nM
CCc1ccc(CN(CCC(=O)O)c2nc(CC3CCC(C)CC3)cs2)s1 (stereo not shown) [Example 15, 3-{(5-Ethyl-thiophen-2-ylmethyl)-[4-(4-methyl-cyclohexylmethyl)-thiazol-2-yl]-amino}-propionic acid] | 221 nM
Cc1cc(CN(CCC(=O)O)c2nc(C3CC4CCCCC4C3)cs2)c(C)s1 (stereo not shown) [Example 59, 3-{(2,5-Dimethyl-thiophen-3-ylmethyl)-[4-(octahydro-inden-2-yl)-thiazol-2-yl]-amino}-propionic acid] | 160 nM

Compound | EC50
CCc1ccc(CN(CCC(=O)O)c2nc(C3(CC(C)C)CCCC3)cs2)s1 [Example 43, 3-{(5-Ethyl-thiophen-2-ylmethyl)-[4-(1-isobutyl-cyclopentyl)-thiazol-2-yl]-amino}-propionic acid] | 173 nM
Cc1ccc(CN(CCC(=O)O)c2nc(C3CC4CCCCC4C3)cs2)s1 (stereo not shown) [Example 57, 3-{(5-Methyl-thiophen-2-ylmethyl)-[4-(octahydro-inden-2-yl)-thiazol-2-yl]-amino}-propionic acid] | 187 nM
CCc1ccc(CN(CCC(=O)O)c2nc(C3(C)CCC(C(C)C)CC3)cs2)s1 (stereo not shown) [Example 49, Sodium; 3-{(5-ethyl-thiophen-2-ylmethyl)-[4-(4-isopropyl-1-methyl-cyclohexyl)-thiazol-2-yl]-amino}-propionate] | 102 nM
Cc1ccc(CN(CCC(=O)O)c2nc(CC3CCC(C)CC3)cs2)s1 (stereo not shown) [Example 16, 3-[[4-(4-Methyl-cyclohexylmethyl)-thiazol-2-yl]-(5-methyl-thiophen-2-ylmethyl)-amino]-propionic acid] | 205 nM
Cc1ccc(CN(CCC(=O)O)c2nc(C3(c4ccc(F)cc4)CCCC3)cs2)s1 [Example 34, Sodium; 3-[{4-[1-(4-fluoro-phenyl)-cyclopentyl]-thiazol-2-yl}-(5-methyl-thiophen-2-ylmethyl)-amino]-propionate] | 269 nM
CCc1ccc(CN(CCC(=O)O)c2nc(C3CCC(C(F)(F)F)CC3)cs2)s1 (stereo not shown) [Example 17, 3-{(5-Ethyl-thiophen-2-ylmethyl)-[4-(4-trifluoromethyl-cyclohexyl)-thiazol-2-yl]-amino}-propionic acid] | 259 nM
CCC1(c2csc(N(CCC(=O)O)Cc3ccc(C)s3)n2)CCC(C(C)C)CC1 (mixture of isomers) [Example 41, Sodium; 3-[[4-(1-ethyl-4-isopropyl-cyclohexyl)-thiazol-2-yl]-(5-methyl-thiophen-2-ylmethyl)-amino]-propionate] | 58 nM
Cc1ccc(CN(CCC(=O)O)c2nc(C3(C)CCC(C(C)(C)C)CC3)cs2)s1 (stereo not shown) [Example 50, 3-[[4-(4-tert-Butyl-1-methyl-cyclohexyl)-thiazol-2-yl]-(5-methyl-thiophen-2-ylmethyl)-amino]-propionic acid] | 154 nM
COC1CCC(c2csc(N(CCC(=O)O)Cc3ccc(C)s3)n2)CC1 (stereo not shown) [Example 30, 3-[[4-(4-Methoxy-cyclohexyl)-thiazol-2-yl]-(5-methyl-thiophen-2-ylmethyl)-amino]-propionic acid] | 3890 nM
Cc1ccc(CN(CCC(=O)O)c2nc(C3CCc4ccccc4C3)cs2)s1 (stereo not shown) [Example 14, 3-{(5-Methyl-thiophen-2-ylmethyl)-[4-(1,2,3,4-tetrahydro-naphthalen-2-yl)-thiazol-2-yl]-amino]-propionic acid] | 602 nM
Cc1ccc(C2(c3csc(N(CCC(=O)O)Cc4ccc(C)s4)n3)CCCC2)cc1 [Example 35, Sodium; 3-{(5-methyl-thiophen-2-ylmethyl)-[4-(1-p-tolyl-cyclopentyl)-thiazol-2-yl]-amino}-propionate] | 132 nM
Cc1ccc(CN(CCC(=O)O)c2nc(C3(C)CCC(c4ccccc4)CC3)cs2)s1 (stereo not shown) [Example 51, 3-[[4-(1-Methyl-4-phenyl-cyclohexyl)-thiazol-2-yl]-(5-methyl-thiophen-2-ylmethyl)-amino]-propionic acid] | 143 nM
CSc1ccc(CN(CCC(=O)O)c2nc(C3CCC(C(C)(C)C)CC3)cs2)s1 (stereo not shown) [Example 29, Sodium; 3-[[4-(4-tert-butyl-cyclohexyl)-thiazol-2-yl]-(5-methylsulfanyl-thiophen-2-ylmethyl)-amino]-propionate] | 427 nM
Cc1ccc(CN(CCC(=O)O)c2nc(C3CCC4(CCCC4)CC3)cs2)s1 [Example 62, 3-[(5-methyl-thiophen-2-ylmethyl)-(4-spiro[4.5]dec-8-yl-thiazol-2-yl)-amino]-propionic acid] | 321 nM
CC(C)(C)C1CCC(c2csc(N(CCC(=O)O)Cc3ccc(S(C)(=O)=O)s3)n2)CC1 (stereo not shown) [Example 36, 3-[[4-(4-tert-Butyl-cyclohexyl)-thiazol-2-yl]-(5-methanesulfonyl-thiophen-2-ylmethyl)-amino]-propionic acid] | 267 nM
